This is an account of results in ChEMBL document CHEMBL1201862, “PubChem BioAssay data set” (2004).

Holding throughout (assay): inhibition of tumour cell growth, NCI panel, 48 h
The subject of assay [1] is HOP-18.
Assay [2] concerns SNB-78.
For assay [3], the system named is LXFL 529.
In assay [4] the test system is DLD-1.
The test system of assay [5] is XF498.
Assay [6] relates to M19-MEL.
The subject of assay [7] is RXF 631.
In assay [8] the test system is KM-20L2.
Assay [9] deals with T47D.

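Grown in 96-well plates, cells were treated for 48 hours with each compound at five concentrations. Insufficient inhibition: endpoint recorded as highest concentration tested. The concentration for 50% growth inhibition is given as GI50.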 Activity calls are given as the source filed them. Rule as the data show it: active = GI50 up to about 1.1 µM and inactive = higher.

In the case of `C/C(CC(=O)Nc1ccc(NC(=O)C/C(C)=N\NC(N)=O)cc1)=N/NC(N)=O`, the GI50 is 63 µM (inactive) in assay [1]; > 100 µM (inactive) in [2]; 65.9 µM (inactive) in [3]; > 45.2 µM (inactive) in [4]; > 92.3 µM (inactive) in [5]; > 100 µM (inactive) in [6]. In addition, the figures for the GI50 in assay [7] and in [8] were 33 µM (inactive) and > 100 µM (inactive), respectively.

Take `COc1cccc2c1OC1Sc3ccccc3-c3nn(-c4ccccc4)c-2c31` (configuration not stated): the GI50 in assay [1], in assay [2], in assay [3], in assay [4], in [5] and in assay [6] was > 100 µM (inactive) each time. In addition, the GI50 in assay [7] and in assay [8] was > 100 µM (inactive) throughout.

As for `CN(C)CCNC(=O)c1cccc2[nH]c(-c3ccccc3)nc12`, the GI50 was 11.9 µM (inactive) in assay [1]; 32.1 µM (inactive) in [2]; 16.3 µM (inactive) in assay [4]; 19.4 µM (inactive) in assay [6]; 24.4 µM (inactive) in assay [7].

In the case of `CC1=C(c2cc(C(=O)Nc3nccs3)nc(NC#N)n2)Sc2ccccc2N1`, the GI50 in [1], in [3], in assay [4], in assay [5], in assay [6] and in [7] was > 100 µM (inactive) in each case. The GI50 in assay [8] was > 100 µM (inactive).

On to `Cc1ccc(-c2c(N)[n+]([O-])c3ccccc3[n+]2[O-])cc1`, for which the GI50 is 15.7 µM (inactive) in assay [1]; 13 µM (inactive) in [2]; 5.81 µM (inactive) in [3]; 13.1 µM (inactive) in assay [4]; 3.71 µM (inactive) in [5]; 11.7 µM (inactive) in assay [6]. Moreover, the GI50 is 1.65 µM (inactive) in assay [7] and 15 µM (inactive) in assay [8].

Consider `C[N+]1(C)C/C(=C\C=C\c2ccccc2)C(=O)/C(=C/C=C/c2ccccc2)C1`, for which the GI50 in [9] is 17 µM (inactive); in assay [1], > 42.2 µM (inactive); in assay [2] it was 6.12 µM (inactive); in assay [3] it was 2.98 µM (inactive); in assay [4] it was 16.1 µM (inactive); in assay [5], 8.49 µM (inactive). The GI50 in [6] is 7.06 µM (inactive); in [8], 14.7 µM (inactive).

For `NC(=O)NNC/C(Cl)=C(\Cl)C(=O)O`, the GI50 in assay [1], in [2], in assay [3], in assay [4], in assay [5] and in assay [6] was > 100 µM (inactive) throughout. In addition, in assay [8], the GI50 is > 100 µM (inactive).

For the compound `O=C(NC(=O)c1ccccc1[N+](=O)[O-])Nc1ccc(Oc2ncc(Br)cn2)c(Cl)c1`, the GI50 is 0.0871 µM (active) in [9]; 0.064 µM (active) in assay [1]; 0.0302 µM (active) in assay [3]; 0.0148 µM (active) in [4]; 0.00723 µM (active) in [5]; 0.0196 µM (active) in assay [6]. Moreover, the GI50 in [7] was 0.0284 µM (active); in [8], 0.022 µM (active).

For the compound `CC(=O)c1c(O)ccc2c1CC(CC=O)O2` (configuration not stated), the GI50 in [2] is 64.6 µM (inactive); in assay [3], 42.9 µM (inactive); in assay [4] it was 32.7 µM (inactive); in [5], > 100 µM (inactive); in [6], 40.1 µM (inactive); in assay [7], 65 µM (inactive). Further, in assay [8], the GI50 was > 100 µM (inactive).

Consider `Cc1cc(=O)n2c3c(c4c(cc13)c(CO)cc(=O)n4C)OC2`, for which the GI50 in assay [1] is 19.5 µM (inactive); in assay [2], 15 µM (inactive); in assay [3], 5.07 µM (inactive); in assay [4], 15.7 µM (inactive); in assay [5], 10.7 µM (inactive); in assay [6], 12.2 µM (inactive). Further, the GI50 is 5.6 µM (inactive) in assay [7] and 29.9 µM (inactive) in assay [8].

For the compound `CCOC(=O)C1(c2ccccc2)CCC(=O)CC1`, the GI50 in assay [1], in [2], in [3], in assay [4], in [6] and in assay [7] was > 100 µM (inactive) each time. Besides, the GI50 in assay [8] is > 100 µM (inactive).

As to `O=C(O)CCSC(=O)Nc1ccccc1Cl`, the GI50 in assay [1], in [2], in assay [3], in [4], in [5] and in assay [6] was > 100 µM (inactive) in each case. The GI50 in [7] and in assay [8] was > 100 µM (inactive) each time.

In the case of `CCCCCCCCCCCCNC(=S)OCCCC`, the GI50 in assay [1] is > 100 µM (inactive); in assay [2], > 100 µM (inactive); in assay [3], > 100 µM (inactive); in [4], > 100 µM (inactive); in assay [5], > 100 µM (inactive); in assay [6], 42.2 µM (inactive). For the same compound, the GI50 in assay [7] and in assay [8] was > 100 µM (inactive) each time.

Take `CCOC(=O)C(C(=O)OCC)=C1N[C@H](C(=O)OCC)CS1`: the GI50 in assay [1], in [2], in assay [3], in assay [4], in assay [5] and in assay [6] was > 100 µM (inactive) in each case. Further, the GI50 in assay [7] and in assay [8] was > 100 µM (inactive) throughout.

As to `COc1cc2c(cc1OC)/C(=C\c1ccccc1N)C(=O)OC2`, the GI50 was 13.8 µM (inactive) in assay [1]; 4.65 µM (inactive) in [3]; 15 µM (inactive) in assay [4]; 15.2 µM (inactive) in assay [6]; 9.75 µM (inactive) in assay [7]; 19.1 µM (inactive) in assay [8].

`O=C(NNC(=O)c1cc(/C=C/c2cccc([N+](=O)[O-])c2)nc(S)n1)Nc1ccc(Cl)cc1`: the GI50 in [1] is > 100 µM (inactive); in assay [2] it was > 100 µM (inactive); in [3] it was 42.3 µM (inactive); in assay [4] it was 20.2 µM (inactive); in assay [5], 28.6 µM (inactive); in [6] it was 69 µM (inactive). Besides, the GI50 in assay [8] was 45.9 µM (inactive).

On to `COC(=O)C1=CC2OC13CC1CCC3(C2=O)C1(C)C` (configuration not stated), for which the GI50 in [1] is 6.46 µM (inactive); in assay [2], 14.4 µM (inactive); in [3], 4.49 µM (inactive); in [5], 3.77 µM (inactive); in [6] it was 11.5 µM (inactive); in [7] it was 13.9 µM (inactive). Besides, the GI50 in [8] is 13.3 µM (inactive).

As to `N#C/C(=C\c1ccc(O)c(O)c1)C(N)=S` [TYRPHOSTIN 47], the GI50 in assay [1] was > 100 µM (inactive); in assay [2] it was > 100 µM (inactive); in assay [3] it was 72.8 µM (inactive); in assay [4], 64.6 µM (inactive); in [5], > 100 µM (inactive); in [6] it was > 100 µM (inactive). The GI50 in assay [8] is > 70.5 µM (inactive).
